Data reported in US8835472B2, “Compounds, pharmaceutical compositions and uses thereof” (Boehringer Ingelheim International GmbH, priority 2010, dated 2014).

Target: human ACC2 (Homo sapiens (Human), UniProt O00763)
Experiment: ACC2 assay, spectrophotometric 384 well assay (NADH-linked, coupled lactate dehydrogenase/pyruvate kinase reaction)
Format: biochemical
Details: hACC2 construct lacking the 128 N-terminal amino acids; 25° C., 340 nm over 15 minutes
Summary of the method: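 N-terminally truncated human ACC2 (lacking 128 residues) expressed in insect cells; coupled PK/LDH read-out of ADP as NADH loss at 340 nm, 15 min, 25 °C. Tris pH 7.5 with citrate and KHCO3; 200 μM acetyl-CoA, 500 μM ATP, 1% DMSO.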

Sequence of human ACC2 (O00763 129-2458): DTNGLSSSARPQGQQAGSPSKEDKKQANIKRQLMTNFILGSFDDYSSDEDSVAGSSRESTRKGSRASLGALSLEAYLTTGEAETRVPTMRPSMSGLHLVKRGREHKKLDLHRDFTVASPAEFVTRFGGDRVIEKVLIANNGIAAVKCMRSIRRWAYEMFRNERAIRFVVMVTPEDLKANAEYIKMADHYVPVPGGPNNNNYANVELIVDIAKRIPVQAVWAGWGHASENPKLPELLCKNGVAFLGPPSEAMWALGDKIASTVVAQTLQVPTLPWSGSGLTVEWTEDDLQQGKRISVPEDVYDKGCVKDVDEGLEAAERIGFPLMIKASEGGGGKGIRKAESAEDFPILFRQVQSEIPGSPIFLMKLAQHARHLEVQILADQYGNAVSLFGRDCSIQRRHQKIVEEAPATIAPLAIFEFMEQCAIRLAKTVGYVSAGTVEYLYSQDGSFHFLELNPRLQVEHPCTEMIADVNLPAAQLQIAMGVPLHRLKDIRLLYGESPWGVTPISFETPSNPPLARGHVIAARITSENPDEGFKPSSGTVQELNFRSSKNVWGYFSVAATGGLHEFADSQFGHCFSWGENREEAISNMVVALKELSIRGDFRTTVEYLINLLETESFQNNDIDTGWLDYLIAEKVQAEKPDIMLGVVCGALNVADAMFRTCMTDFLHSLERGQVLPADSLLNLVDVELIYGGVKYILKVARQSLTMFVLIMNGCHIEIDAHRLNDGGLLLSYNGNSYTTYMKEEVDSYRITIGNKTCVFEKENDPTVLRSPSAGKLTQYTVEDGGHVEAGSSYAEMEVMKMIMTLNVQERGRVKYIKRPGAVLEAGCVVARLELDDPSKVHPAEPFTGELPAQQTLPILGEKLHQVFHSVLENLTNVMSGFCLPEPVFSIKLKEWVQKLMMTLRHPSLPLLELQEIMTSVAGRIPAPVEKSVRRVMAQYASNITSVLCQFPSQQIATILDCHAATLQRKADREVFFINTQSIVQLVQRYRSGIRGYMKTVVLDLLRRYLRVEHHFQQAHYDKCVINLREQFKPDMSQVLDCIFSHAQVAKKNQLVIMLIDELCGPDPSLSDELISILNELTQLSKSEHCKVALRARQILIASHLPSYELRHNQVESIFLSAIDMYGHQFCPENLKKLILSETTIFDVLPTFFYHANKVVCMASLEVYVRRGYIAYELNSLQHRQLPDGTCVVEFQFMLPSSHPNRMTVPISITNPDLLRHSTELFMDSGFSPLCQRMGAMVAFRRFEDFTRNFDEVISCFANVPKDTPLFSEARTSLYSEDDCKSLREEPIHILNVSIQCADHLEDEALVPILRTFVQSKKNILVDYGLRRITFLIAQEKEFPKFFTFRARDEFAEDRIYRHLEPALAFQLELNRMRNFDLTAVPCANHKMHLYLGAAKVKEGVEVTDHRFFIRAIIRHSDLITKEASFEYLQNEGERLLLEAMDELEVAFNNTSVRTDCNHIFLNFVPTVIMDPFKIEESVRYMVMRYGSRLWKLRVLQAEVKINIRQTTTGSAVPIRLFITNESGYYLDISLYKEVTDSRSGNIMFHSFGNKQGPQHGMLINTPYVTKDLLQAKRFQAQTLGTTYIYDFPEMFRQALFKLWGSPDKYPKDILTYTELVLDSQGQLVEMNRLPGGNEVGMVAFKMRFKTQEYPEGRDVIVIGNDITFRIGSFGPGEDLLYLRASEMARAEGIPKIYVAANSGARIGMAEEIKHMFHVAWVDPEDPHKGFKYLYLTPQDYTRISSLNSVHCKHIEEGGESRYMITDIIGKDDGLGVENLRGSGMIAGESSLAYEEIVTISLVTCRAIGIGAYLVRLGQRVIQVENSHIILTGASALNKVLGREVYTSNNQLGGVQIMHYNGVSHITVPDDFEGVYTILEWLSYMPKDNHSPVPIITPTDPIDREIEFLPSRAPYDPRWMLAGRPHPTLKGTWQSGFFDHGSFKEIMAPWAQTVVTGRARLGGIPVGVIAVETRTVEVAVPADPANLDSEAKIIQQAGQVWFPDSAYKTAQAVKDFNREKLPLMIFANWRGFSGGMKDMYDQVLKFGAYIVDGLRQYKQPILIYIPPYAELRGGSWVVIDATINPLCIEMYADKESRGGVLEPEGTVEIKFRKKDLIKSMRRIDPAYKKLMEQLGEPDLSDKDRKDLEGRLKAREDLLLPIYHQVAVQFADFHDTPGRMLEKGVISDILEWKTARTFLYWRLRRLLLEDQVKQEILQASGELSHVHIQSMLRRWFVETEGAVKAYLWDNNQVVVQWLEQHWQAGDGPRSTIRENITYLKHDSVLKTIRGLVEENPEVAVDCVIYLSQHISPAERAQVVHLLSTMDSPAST

| Compound | IC50 [nM] |
| --- | --- |
| CCOc1nccc(C#Cc2ccc(CC(C)NC(C)=O)cc2)n1 (stereo not drawn) [Example 12.1, N-(1-(4-((2-ethoxypyrimidin-4-yl)ethynyl)phenyl)propan-2-yl)acetamide] | 8500 |
| CC(=O)NC(C)Cc1ccc(C#Cc2ccnc(OC3CCCC3)n2)cc1 (stereo not drawn) [Example 12.2] | 4300 |
| CC(=O)NC(C)Cc1ccc(C#Cc2ccnc(Oc3ccccc3)n2)cc1 (stereo not drawn) [Example 12.3] | 1300 |
| CC(=O)NC(C)Cc1ccc(C#Cc2ccnc(OCC3CC3)n2)cc1 (stereo not drawn) [Example 12.5] | 1600 |
| CC(=O)NC(C)Cc1ccc(C#Cc2ccnc(OC3CCC3)n2)cc1 (stereo not drawn) [Example 12.6] | 1100 |
| CC(=O)NC(C)Cc1ccc(C#Cc2cnc(OC3CCOC3)nc2)cc1 (stereo not drawn) [Example 12.10] | 630 |
| CC(=O)NC(C)Cc1ccc(C#Cc2cnc(OC3CCC3)nc2)cc1 (stereo not drawn) [Example 12.12] | 90 |
| CC(=O)NC(C)Cc1ccc(C#Cc2cnc(Oc3ccccc3)nc2)cc1 (stereo not drawn) [Example 12.16] | 170 |
| CC(=O)NC(C)Cc1ccc(C#Cc2ccnc(OC(C)C)n2)cc1 (stereo not drawn) [Example 12.18] | 7100 |
| CC(=O)NC(C)Cc1ccc(C#Cc2cnc(OCCC(C)C)nc2)cc1 (stereo not drawn) [Example 12.19] | 1200 |
| CC(Cc1ccc(C#Cc2cnc(OC3CCC3)nc2)cc1)NC(=O)C1CC1 (stereo not drawn) [Example 12.22] | 640 |
| CCCOc1ncc(C#Cc2ccc(CC(C)NC(=O)C3CC3)cc2)cn1 (stereo not drawn) [Example 12.23] | 1100 |
| CC(Cc1ccc(C#Cc2cnc(Oc3ccccc3)nc2)cc1)NC(=O)C1CC1 (stereo not drawn) [Example 12.24] | 590 |
| CC(Cc1ccc(C#Cc2cnc(OC(C)C)nc2)cc1)NC(=O)C1CC1 (stereo not drawn) [Example 12.25] | 2400 |
| COC(=O)NC(C)Cc1ccc(C#Cc2cnc(Oc3ccccc3)nc2)cc1 (stereo not drawn) [Example 12.27] | 860 |
| COC(=O)NC(C)Cc1ccc(C#Cc2cnc(OC(C)C)nc2)cc1 (stereo not drawn) [Example 12.28] | 1100 |
| CC(Cc1ccc(C#Cc2cnc(OC3CCC3)nc2)cc1)NC(=O)N(C)C (stereo not drawn) [Example 12.29] | 70 |
| CC(=O)NC(C)Cc1ccc(C#Cc2cnc(OCCF)nc2)cc1 (stereo not drawn) [Example 12.31] | 1100 |
| CC(=O)NC(C)Cc1ccc(C#Cc2cnc(OCCc3ccccc3)nc2)cc1 (stereo not drawn) [Example 12.32] | 320 |
| CC(=O)NC(C)Cc1ccc(C#Cc2cnc(OCCC3CC3)nc2)cc1 (stereo not drawn) [Example 12.33] | 320 |
| CC(=O)NC(C)Cc1ccc(C#Cc2cnc(OC(C)c3ccncc3)nc2)cc1 (stereo not drawn) [Example 12.35] | 2300 |
| CCC(COC)Oc1ncc(C#Cc2ccc(CC(C)NC(C)=O)cc2)cn1 (stereo not drawn) [Example 12.37] | 1100 |
| CC(=O)NC(C)Cc1ccc(C#Cc2cnc(OC(C)C(F)(F)F)nc2)cc1 (stereo not drawn) [Example 12.38] | 260 |
| COc1ccc(Oc2ncc(C#Cc3ccc(CC(C)NC(C)=O)cc3)cn2)cn1 (stereo not drawn) [Example 12.40] | 630 |
| CC(=O)NC(C)Cc1ccc(C#Cc2cnc(OC(C)CC(F)(F)F)nc2)cc1 (stereo not drawn) [Example 12.42] | 350 |
| CC(=O)NC(C)Cc1ccc(C#Cc2cnc(OC(CF)CF)nc2)cc1 (stereo not drawn) [Example 12.44] | 1000 |

| Compound | IC50 [nM] |
| --- | --- |
| CC(=O)NC(C)Cc1ccc(C#Cc2cnc(OCC3CC3(F)F)nc2)cc1 (stereo not drawn) [Example 12.45] | 180 |
| COc1ccccc1Oc1ncc(C#Cc2ccc(CC(C)NC(C)=O)cc2)cn1 (stereo not drawn) [Example 12.46] | 1000 |
| CC(=O)NC(C)Cc1ccc(C#Cc2cnc(Oc3cccc(F)c3)nc2)cc1 (stereo not drawn) [Example 12.47] | 130 |
| CC(=O)NC(C)Cc1ccc(C#Cc2cnc(Oc3cccnc3)nc2)cc1 (stereo not drawn) [Example 12.51] | 1500 |
| CC(=O)NC(C)Cc1ccc(C#Cc2cnc(OCc3ccccc3F)nc2)cc1 (stereo not drawn) [Example 12.53] | 9000 |
| CC(=O)NC(C)Cc1ccc(C#Cc2cnc(OCc3cccc(F)c3)nc2)cc1 (stereo not drawn) [Example 12.54] | 230 |
| CC(=O)NC(C)Cc1ccc(C#Cc2cnc(OCc3cccnc3)nc2)cc1 (stereo not drawn) [Example 12.56] | 4900 |
| C[C@H](NC(=O)C1CC1)c1ccc(C#Cc2cnc(OCC3CC3)nc2)cc1 [Example 12.58] | 4500 |
| CC(=O)N[C@@H](C)c1ccc(C#Cc2cnc(OCC3CC3)nc2)cc1 [Example 12.59] | 1600 |
| CC(=O)N[C@@H](C)c1ccc(C#Cc2cnc(OCc3ccoc3)nc2)cc1 [Example 12.61] | 790 |
| CC(=O)N[C@@H](C)c1ccc(C#Cc2cnc(OC3CCC3)nc2)cc1 [Example 12.62] | 240 |
| C[C@H](NC(=O)C1CC1)c1ccc(C#Cc2cnc(OC3CCC3)nc2)cc1 [Example 12.65] | 450 |
| CCOc1ncc(C#Cc2ccc([C@H](C)NC(=O)C3CC3)cc2)cn1 [Example 12.66] | 2100 |
| C[C@H](NC(=O)C1CC1)c1ccc(C#Cc2cnc(Oc3ccccc3)nc2)cc1 [Example 12.67] | 3900 |
| CC(=O)N[C@@H](C)c1ccc(C#Cc2cnc(Oc3ccccc3)nc2)cc1 [Example 12.68] | 980 |
| CCOc1ncc(C#Cc2ccc([C@H](C)NC(C)=O)cc2)cn1 [Example 12.69] | 2600 |
| COCCN(C)c1ncc(C#Cc2ccc(CC(C)NC(C)=O)cc2)cn1 (stereo not drawn) [Example 13.1, N-(1-(4-((2-((2-Methoxyethyl)(methyl)amino)pyrimidin-5-yl)ethynyl)phenyl)propan-2-yl)acetamide] | 3200 |
| CCCNc1ncc(C#Cc2ccc(CC(C)NC(C)=O)cc2)cn1 (stereo not drawn) [Example 13.2] | 210 |
| CCN(C)c1ncc(C#Cc2ccc(CC(C)NC(C)=O)cc2)cn1 (stereo not drawn) [Example 13.3] | 1000 |
| CC(=O)NC(C)Cc1ccc(C#Cc2cnc(NC(C)C)nc2)cc1 (stereo not drawn) [Example 13.4] | 170 |
| COC(=O)CNc1ncc(C#Cc2ccc(CC(C)NC(C)=O)cc2)cn1 (stereo not drawn) [Example 13.5] | 1400 |
| CC(=O)NC(C)Cc1ccc(C#Cc2cnc(NC(C)C(C)C)nc2)cc1 (stereo not drawn) [Example 13.11] | 230 |
| CC(=O)NC(C)Cc1ccc(C#Cc2cnc(NC3CCC3)nc2)cc1 (stereo not drawn) [Example 13.12] | 110 |
| COCC(C)Nc1ncc(C#Cc2ccc(CC(C)NC(C)=O)cc2)cn1 (stereo not drawn) [Example 13.14] | 1900 |
| CC(=O)NC(C)Cc1ccc(C#Cc2cnc(N(C)C3CCCC3)nc2)cc1 (stereo not drawn) [Example 13.16] | 190 |
| CC(=O)NC(C)Cc1ccc(C#Cc2cnc(NCC3CCC3)nc2)cc1 (stereo not drawn) [Example 13.17] | 180 |

Further compounds by falling IC50, results first:

| IC50 [nM] | Compound |
| --- | --- |
| 3600 | CCC(C)Oc1nccc(C#Cc2ccc(CC(C)NC(C)=O)cc2)n1 (stereo not drawn) [Example 12.7] |
| 3200 | CC(=O)NC(C)Cc1ccc(C#Cc2cnc(Oc3ccc4cn[nH]c4c3)nc2)cc1 (stereo not drawn) [Example 12.39] |
| 2600 | CC(=O)NC(C)Cc1ccc(C#Cc2cnc(OCC(C)(F)F)nc2)cc1 (stereo not drawn) [Example 12.43] |
| 2500 | CC(=O)NC(C)Cc1ccc(C#Cc2cnc(OCc3cc(C)on3)nc2)cc1 (stereo not drawn) [Example 12.14] |
| 2200 | CCCOc1nccc(C#Cc2ccc(CC(C)NC(C)=O)cc2)n1 (stereo not drawn) [Example 12.8] |
| 2100 | COCCOc1ncc(C#Cc2ccc(CC(C)NC(C)=O)cc2)cn1 (stereo not drawn) [Example 12.9] |
| 1800 | CC(=O)NC(C)Cc1ccc(C#Cc2cnc(OCc3ccccn3)nc2)cc1 (stereo not drawn) [Example 12.57] |
| 1500 | CC(=O)NC(C)Cc1ccc(C#Cc2cnc(OCc3cncs3)nc2)cc1 (stereo not drawn) [Example 12.36] |
| 1100 | C[C@H](NC(=O)C1CC1)c1ccc(C#Cc2cnc(OCCC(F)(F)F)nc2)cc1 [Example 12.63] |
| 1000 | CCCOc1ncc(C#Cc2ccc(CC(C)NC(=O)OC)cc2)cn1 (stereo not drawn) [Example 12.26] |
| 980 | CC(=O)NC(C)Cc1ccc(C#Cc2ccnc(OCC(C)C)n2)cc1 (stereo not drawn) [Example 12.4] |
| 670 | CC(=O)NC(C)Cc1ccc(C#Cc2cnc(OCC(C)C)nc2)cc1 (stereo not drawn) [Example 12.11] |
| 550 | CC(=O)N[C@@H](C)c1ccc(C#Cc2cnc(OCCC(F)(F)F)nc2)cc1 [Example 12.64] |
| 540 | CC(=O)N[C@@H](C)c1ccc(C#Cc2cnc(OCc3ccccc3)nc2)cc1 [Example 12.60] |
| 530 | CC(=O)NC(C)Cc1ccc(C#Cc2cnc(OCc3ccccc3)nc2)cc1 (stereo not drawn) [Example 12.20] |
| 530 | COc1ccc(Oc2ncc(C#Cc3ccc(CC(C)NC(C)=O)cc3)cn2)cc1 (stereo not drawn) [Example 12.50] |

| IC50 [nM] | Compound |
| --- | --- |
| 520 | CC(=O)NC(C)Cc1ccc(C#Cc2cnc(OC(C)CF)nc2)cc1 (stereo not drawn) [Example 12.41] |
| 450 | CC(=O)NC(C)Cc1ccc(C#Cc2cnc(NCC3CC3)nc2)cc1 (stereo not drawn) [Example 13.10] |
| 430 | CC(=O)NC(C)Cc1ccc(C#Cc2cnc(OCC3(C)CC3)nc2)cc1 (stereo not drawn) [Example 12.13] |
| 430 | CC(=O)NC(C)Cc1ccc(C#Cc2cnc(OC3Cc4ccccc4C3)nc2)cc1 (stereo not drawn) [Example 12.52] |
| 380 | CCOc1ncc(C#Cc2ccc(CC(C)NC(C)=O)cc2)cn1 (stereo not drawn) [Example 12.17] |
| 380 | CC(=O)NC(C)Cc1ccc(C#Cc2cnc(OC(C)C)nc2)cc1 (stereo not drawn) [Example 12.21] |
| 280 | CCCCOc1ncc(C#Cc2ccc(CC(C)NC(C)=O)cc2)cn1 (stereo not drawn) [Example 12.34] |
| 260 | CC(=O)NC(C)Cc1ccc(C#Cc2cnc(N3CCCCC3)nc2)cc1 (stereo not drawn) [Example 13.7] |
| 230 | CCCOc1ncc(C#Cc2ccc(CC(C)NC(C)=O)cc2)cn1 (stereo not drawn) [Example 12.15] |
| 230 | CC(=O)NC(C)Cc1ccc(C#Cc2cnc(Oc3ccc(F)cc3)nc2)cc1 (stereo not drawn) [Example 12.49] |
| 230 | CCNc1ncc(C#Cc2ccc(CC(C)NC(C)=O)cc2)cn1 (stereo not drawn) [Example 13.13] |
| 220 | CC(=O)NC(C)Cc1ccc(C#Cc2cnc(NC3CCCC3)nc2)cc1 (stereo not drawn) [Example 13.8] |
| 190 | CCCOc1ncc(C#Cc2ccc(CC(C)NC(=O)N(C)C)cc2)cn1 (stereo not drawn) [Example 12.30] |
| 170 | CC(=O)NC(C)Cc1ccc(C#Cc2cnc(OCc3ccc(F)cc3)nc2)cc1 (stereo not drawn) [Example 12.55] |
| 160 | CCCC(C)Nc1ncc(C#Cc2ccc(CC(C)NC(C)=O)cc2)cn1 (stereo not drawn) [Example 13.15] |
| 100 | CC(=O)NC(C)Cc1ccc(C#Cc2cnc(NCc3ccccc3)nc2)cc1 (stereo not drawn) [Example 13.6] |
